Experimental data reported in PubChem BioAssay AID248 (DTP/NCI, 2004).
Where “and” joins values, the source holds several entries; their conditions need not be identical. Equal entries are not always repeated. Toxic doses and inconclusive results are not listed. No stated cut-off is given here; in the data, active means T/C of 150% or more; inactive means T/C below 125%.

System: L1210 leukemia ip in BDF1 mice, survival T/C
Assay: NCI In Vivo Anticancer Drug Screen. Data for tumor model L1210 Leukemia (intraperitoneal) in B6D2F1 (BDF1) mice
Details: endpoint: mean survival time, higher = longer survival
Outline: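 Antitumor effect is assessed in tumor-bearing animals. Survival in the compound arm is compared with a vehicle-dosed control arm and expressed as their quotient.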

[1] = dose: 75.0 mg/kg/injection, schedule: Q01DX001 (ip), vehicle: other
[2] = dose: 150.0 mg/kg/injection, schedule: Q01DX001 (ip), vehicle: other
[3] = dose: 300.0 mg/kg/injection, schedule: Q01DX001 (ip), vehicle: other
[4] = dose: 100.0 mg/kg/injection, schedule: Q01DX009 (ip), vehicle: Klucel (hydroxypropylcellulose) (HPC)
[5] = dose: 100.0 mg/kg/injection, schedule: Q04DX003 (ip), vehicle: Klucel (hydroxypropylcellulose) (HPC)
[6] = dose: 200.0 mg/kg/injection, schedule: Q04DX003 (ip), vehicle: Klucel (hydroxypropylcellulose) (HPC)
[7] = dose: 400.0 mg/kg/injection, schedule: Q04DX003 (ip), vehicle: Klucel (hydroxypropylcellulose) (HPC)
[8] = dose: 25.0 mg/kg/injection, schedule: Q01DX009 (ip), vehicle: Klucel (hydroxypropylcellulose) (HPC)
[9] = dose: 50.0 mg/kg/injection, schedule: Q01DX009 (ip), vehicle: Klucel (hydroxypropylcellulose) (HPC)
[10] = dose: 100.0 mg/kg/injection, schedule: Q04DX002 (ip), vehicle: Klucel (hydroxypropylcellulose) (HPC)
[11] = dose: 200.0 mg/kg/injection, schedule: Q04DX002 (ip), vehicle: Klucel (hydroxypropylcellulose) (HPC)
[12] = dose: 400.0 mg/kg/injection, schedule: Q04DX002 (ip), vehicle: Klucel (hydroxypropylcellulose) (HPC)
[13] = dose: 100.0 mg/kg/injection, schedule: Q01DX001 (ip), vehicle: saline
[14] = dose: 200.0 mg/kg/injection, schedule: Q01DX001 (ip), vehicle: saline
[15] = dose: 400.0 mg/kg/injection, schedule: Q01DX001 (ip), vehicle: saline

Measured: T/C

CCSC(Sc1ccccc1)C(SCC)C(OC(=O)c1ccccc1)C(OC(=O)c1ccccc1)C(COC(=O)c1ccccc1)OC(=O)c1ccccc1 (configuration not stated)
inactive: [1] 95 % of control | [2] 90 % of control | [3] 94 % of control

COc1cc(C=O)ccc1OC(=O)Nc1ccc([N+](=O)[O-])cc1Cl
inactive: [4] 98 % of control | [5] 103 % of control | dose: 200.0 mg/kg/injection, schedule: Q01DX009 (ip), vehicle: Klucel (hydroxypropylcellulose) (HPC) 98 % of control | [6] 97 % of control | dose: 400.0 mg/kg/injection, schedule: Q01DX009 (ip), vehicle: Klucel (hydroxypropylcellulose) (HPC) 98 % of control | [7] 105 % of control

NC(CSC(c1ccccc1)(c1ccccc1)c1ccc(O)cc1)C(=O)O (configuration not stated)
inactive: dose: 6.25 mg/kg/injection, schedule: Q01DX009 (ip), vehicle: saline 111 % of control | dose: 12.5 mg/kg/injection, schedule: Q01DX009 (ip), vehicle: saline 105 % of control | dose: 25.0 mg/kg/injection, schedule: Q01DX009 (ip), vehicle: saline 116 % of control | [1] 104 % of control | [2] 109 % of control

CC(C)(C)C1(C)CNC(=O)O1 (configuration not stated)
inactive: dose: 6.0 mg/kg/injection, schedule: Q01DX009 (ip), vehicle: Klucel (hydroxypropylcellulose) (HPC) 100 % of control | dose: 12.0 mg/kg/injection, schedule: Q01DX009 (ip), vehicle: Klucel (hydroxypropylcellulose) (HPC) 104 % of control | [8] 102 % of control | dose: 25.0 mg/kg/injection, schedule: Q04DX003 (ip), vehicle: Klucel (hydroxypropylcellulose) (HPC) 102 % of control | [9] 101 % of control | dose: 50.0 mg/kg/injection, schedule: Q04DX003 (ip), vehicle: Klucel (hydroxypropylcellulose) (HPC) 102 % of control | [4] 101 % of control | [5] 95 % of control and 89 % of control

O=C(CNC(c1ccccc1)(c1ccccc1)c1ccccc1)OC(c1ccccc1)c1ccccc1
inactive: dose: 100.0 mg/kg/injection, schedule: Q01DX009 (ip), vehicle: saline with Tween-80 86 % of control | dose: 100.0 mg/kg/injection, schedule: Q04DX003 (ip), vehicle: saline sonified 106 % of control | dose: 200.0 mg/kg/injection, schedule: Q01DX009 (ip), vehicle: saline with Tween-80 89 % of control | dose: 200.0 mg/kg/injection, schedule: Q04DX003 (ip), vehicle: saline sonified 92 % of control | dose: 400.0 mg/kg/injection, schedule: Q04DX003 (ip), vehicle: saline sonified 97 % of control

C[Si](C)(O[Si](C)(C)c1ccccc1)c1ccccc1
inactive: dose: 20.0 mg/kg/injection, schedule: Q01DX009 (ip), vehicle: saline 93 % of control | dose: 40.0 mg/kg/injection, schedule: Q01DX009 (ip), vehicle: saline 90 % of control | dose: 80.0 mg/kg/injection, schedule: Q01DX009 (ip), vehicle: saline 87 % of control | dose: 100.0 mg/kg/injection, schedule: Q01DX009 (ip), vehicle: saline 95 % of control | dose: 100.0 mg/kg/injection, schedule: Q04DX003 (ip), vehicle: saline 103 % of control | dose: 200.0 mg/kg/injection, schedule: Q01DX009 (ip), vehicle: saline 107 % of control | dose: 200.0 mg/kg/injection, schedule: Q04DX003 (ip), vehicle: saline 100 % of control | dose: 400.0 mg/kg/injection, schedule: Q04DX003 (ip), vehicle: saline 97 % of control

O=C(NS(=O)(=O)c1ccc(Cl)cc1)OCCCl
inactive: [5] 96 % of control | [6] 95 % of control | [7] 98 % of control

Cc1cnc(N[N+](=O)[O-])nc1-c1ccccc1O
inactive: [10] 96 % of control | [11] 108 % of control | [12] 105 % of control

S=C(NCN1CCNCC1)C(=S)NCN1CCNCC1
inactive: dose: 12.5 mg/kg/injection, schedule: Q01DX009 (ip), vehicle: Klucel (hydroxypropylcellulose) (HPC) 97 % of control | [8] 100 % of control | [9] 93 % of control

CSc1nc(Cl)c2ccn(C)c2n1
inactive: [1] 100 % of control | [2] 96 % of control | [3] 100 % of control

CC12CCC3c4ccc(Oc5ccc(N)cc5)cc4CCC3C1CCC2=O (configuration not stated)
inactive: dose: 100.0 mg/kg/injection, schedule: Q01DX001 (sc), vehicle: steriod suspending solution 101 % of control | dose: 200.0 mg/kg/injection, schedule: Q01DX001 (sc), vehicle: steriod suspending solution 95 % of control | dose: 400.0 mg/kg/injection, schedule: Q01DX001 (sc), vehicle: steriod suspending solution 101 % of control

CC1NC(=O)NC(=O)C1CCSCCC1C(=O)NC(=O)NC1C (configuration not stated)
inactive: [13] 96 % of control | [14] 109 % of control | [15] 104 % of control

CCC1=C(c2cc(Cl)c3ccccc3c2OCC(=O)O)OC(CC)(C(=O)c2cc(Cl)c3ccccc3c2OCC(=O)O)CC1 (configuration not stated)
inactive: dose: 30.0 mg/kg/injection, schedule: Q01DX009 (ip), vehicle: saline with Tween-80 96 % of control | dose: 31.0 mg/kg/injection, schedule: Q01DX Z (ip), vehicle: other 92 % of control | dose: 60.0 mg/kg/injection, schedule: Q01DX009 (ip), vehicle: saline with Tween-80 94 % of control | dose: 62.0 mg/kg/injection, schedule: Q01DX Z (ip), vehicle: other 95 % of control | dose: 100.0 mg/kg/injection, schedule: Q04DX003 (ip), vehicle: saline with Tween-80 103 % of control | dose: 120.0 mg/kg/injection, schedule: Q01DX009 (ip), vehicle: saline with Tween-80 92 % of control | dose: 200.0 mg/kg/injection, schedule: Q04DX003 (ip), vehicle: saline with Tween-80 93 % of control | dose: 240.0 mg/kg/injection, schedule: Q01DX009 (ip), vehicle: saline with Tween-80 92 % of control

CCCCCCCCCCCCCCCCC/C(CC)=N/Nc1ccc([N+](=O)[O-])cc1[N+](=O)[O-]
inactive: dose: 100.0 mg/kg/injection, schedule: Q01DX001 (ip), vehicle: Klucel (hydroxypropylcellulose) (HPC) 104 % of control | dose: 200.0 mg/kg/injection, schedule: Q01DX001 (ip), vehicle: Klucel (hydroxypropylcellulose) (HPC) 106 % of control | dose: 400.0 mg/kg/injection, schedule: Q01DX001 (ip), vehicle: Klucel (hydroxypropylcellulose) (HPC) 97 % of control

OCC1CCCCC1CO (configuration not stated)
inactive: [10] 113 % of control | [11] 107 % of control | [12] 103 % of control

[Cl][Pt+2]([Cl])([Cl])[Cl].c1ccc(C2CC[N-]CC2)cc1.c1ccc(C2CC[N-]CC2)cc1
inactive: dose: 50.0 mg/kg/injection, schedule: Q01DX009 (ip), vehicle: water 101 % of control | dose: 100.0 mg/kg/injection, schedule: Q01DX009 (ip), vehicle: water 102 % of control | dose: 100.0 mg/kg/injection, schedule: Q04DX003 (ip), vehicle: water 105 % of control | dose: 200.0 mg/kg/injection, schedule: Q04DX003 (ip), vehicle: water 103 % of control

OCCCN=Cc1cc(Cl)cc(Cl)c1O
inactive: [13] 98 % of control | [14] 95 % of control | [15] 93 % of control

CON(C)C(=O)N1c2ccccc2Sc2ccccc21
inactive: dose: 25.0 mg/kg/injection, schedule: Q04DX002 (ip), vehicle: saline with Tween-80 88 % of control | dose: 50.0 mg/kg/injection, schedule: Q04DX002 (ip), vehicle: saline with Tween-80 95 % of control | dose: 100.0 mg/kg/injection, schedule: Q04DX002 (ip), vehicle: saline with Tween-80 103 % of control | dose: 200.0 mg/kg/injection, schedule: Q04DX002 (ip), vehicle: saline with Tween-80 95 % of control

[O-][n+]1onc(-c2ccccc2)c1-c1ccccc1
inactive: [5] 105 % of control | [6] 108 % of control | [7] 108 % of control

O=C(N/N=C/c1ccc(O)cc1O)c1cccc2ccccc12
inactive: [13] 92 % of control | [14] 100 % of control | [15] 92 % of control

Cc1c(O)ccc([N+](=O)[O-])c1O
inactive: dose: 6.25 mg/kg/injection, schedule: Q01DX009 (ip), vehicle: saline with Tween-80 93 % of control | dose: 12.5 mg/kg/injection, schedule: Q01DX009 (ip), vehicle: saline with Tween-80 97 % of control | dose: 25.0 mg/kg/injection, schedule: Q01DX009 (ip), vehicle: saline with Tween-80 97 % of control
